According to publication PMC10223284, “Category-Based Toxicokinetic Evaluations of Data-Poor Per- and Polyfluoroalkyl Substances (PFAS) using Gas Chromatography Coupled with Mass Spectrometry” (Toxics, 2023):
“And” between values parts separate entries of the source, which are not always exact repeats. Identical values can stand only once.

What was measured:
[1] = Abiotic loss in negative controls of the hepatocyte clearance assay (cell-free media, metabolically inactivated hepatocytes); assay type: in vitro ADME; settings: flag for stability failure in hepatocyte clearance assay controls (1 or Fst = fail, 0 = pass)
How it was run: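 Abiotic stability was checked with media-only and inactivated-hepatocyte controls, run at T0 and T240 or, on rerun, at more time points. Compound at 1 μM, 37 °C, acetonitrile quench. Loss rates served for background subtraction, and ≥50% loss by T120 meant exclusion.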

[2] = Chemical stability in plasma over the UC assay time course (T5hr/T1hr); settings: both, human, plasma
Description: (§1) Three replicates were run per experiment, with 4NT included as a reference compound in each to evaluate assay performance. All PFAS and 4NT, prepared at a 3 mM working stock, were added to human plasma to achieve a final, thoroughly mixed assay concentration of 10 μM, incubated at 37 °C for 1 h with shaking. […] After UC, the aqueous fraction (AF; i.e., supernatant devoid of plasma proteins/lipoproteins/fatty acids) was collected and transferred to a new tube. The second aliquot maintained at 37 °C was collected (T5hr). At the relevant time points, each volume of sample was combined with 3 volumes of vigorously mixed ice-cold acetonitrile with the labeled IS and stored for 10 min at −20 °C prior to centrifugation at 12,000× g for 10 min at 4 °C. The supernatant was collected and stored at <−70 °C until quantitative analysis. […] Furthermore, chemical stability in plasma over the assay time course was assessed using the T1hr and T5hr samples.
(§2) Percent chemical remaining at the end of the UC assay (T5hr/T1hr) was used to remove unstable chemicals from further evaluation.

human plasma [3] = assay: as above; settings: for PPB_Stab_Fail: flag for stability failure in the plasma protein binding assay (1 = fail, 0 = pass); for Fstable.Med: median fraction stable in plasma, UC assay Level4
Description: as §1, §2

[4] = Ultracentrifugation (UC) plasma protein binding assay, fraction unbound in plasma (fup); settings: both, human, plasma
human plasma [5] = assay: as above; settings: for Fup.Med: median fraction unbound in plasma; for Fup.Med / Fup.point: UC assay Level4; for Fup.point: point estimate of fraction unbound in plasma

Hep_Stab_Fail [1]	remaining at 5 h, 10 μM [2] [%]	Stability (T5hr/ T1hr), Run-specific Avg (human plasma [3]; average of one UC run (run date in line above))	PPB_Stab_Fail (human plasma [3])	Mean Stability (human plasma [3]; mean T5hr/T1hr ratio over all replicates and runs, plasma)	Fstable.Med (human plasma [3])	fraction unbound at 5 h, 10 μM ([4]; Fraction Unbound (fu), Run-specific Avg, average of one UC run (run date in line above))	fraction unbound at 5 h, 10 μM ([4]; Fraction Unbound (fu), replicates A, B, C, single replicate of one UC run (aqueous fraction / Time 5 hr))	fup (human plasma [5]; human plasma, 10 μM, ultracentrifugation, 37 °C)	Fup.Med (human plasma [5])	Fup.point (human plasma [5])	Fraction Unbound (fu), replicates A, B, C (human plasma [5]; single replicate of one UC run (aqueous fraction / Time 5 hr))	fraction unbound at 5 h, 10 μM ([4]; Mean fu, fraction unbound in human plasma, ultracentrifugation, some values based on eLOQ)	Structure (SMILES)	Stability (T5hr/ T1hr), replicates A, B, C (human plasma [3]; single replicate of one UC run)
1	76	0.77 and 0.751	0	0.76	0.225	0.993	1	1	0.867	0.963	0.90 and 0.77 and 0.85	–	NC(O)(C(F)(F)F)C(F)(F)F [2-Aminohexafluoropropan-2-ol]	0.60 and 0.78 and 0.93 and 0.61 and 0.77 and 0.88
1	66	–	0	–	0.531	–	–	–	0.63	0.762	–	0.841	FC(F)C(F)(F)COCC1CO1 (centres unmarked) [((2,2,3,3-Tetrafluoropropoxy)methyl)oxirane]	–
